The record followed here is US5639783A, “Ketone derivatives” (Mitsubishi Chemical Corporation, priority 1991, dated 1997).

Like-named read-outs stand apart in the source and are kept apart here.

Common to all, as to type: biochemical
One experiment addresses T1, papain (Carica papaya, UniProt P00784).
T1 sequence (P00784 134-345): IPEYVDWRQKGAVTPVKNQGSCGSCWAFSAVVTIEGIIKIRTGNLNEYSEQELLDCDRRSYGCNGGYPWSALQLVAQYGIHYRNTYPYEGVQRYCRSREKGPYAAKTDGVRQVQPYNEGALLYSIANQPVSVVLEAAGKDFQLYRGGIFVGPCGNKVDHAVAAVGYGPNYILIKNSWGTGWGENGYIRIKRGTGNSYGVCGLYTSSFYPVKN
Put plainly: Thiol protease inhibitory activity, papain (P-3125, Sigma). As to the method:
(§1) Inhibitory activity against papain (P-3125, Sigma) and cathepsin B (C-6286, Sigma) was assayed according to the method described in a literature [Biochemical Journal, 201, 189 (1982)]. Cathepsin L was purified from rat kidney according to the method in a literature [Journal of Biochemistry, 100, 35 (1986)], and the inhibitory activity against it was assayed in the same manner as described in the above literature for cathepsin B. Furthermore, m-calpain was purified from rat brain according to a known method [Journal of Biological Chemistry, 254, p. 3210 (1984)] and the inhibitory activity against it was assayed by a method described in a literature [Journal of Biological Chemistry, 259, 12489 (1984)]. It is evident from Tables 3 and 4 that the compounds of the present invention have a potent inhibitory activity against thiol proteases such as papain, cathepsin B, cathepsin L or m-calpain.

The target of another experiment is T2, cathepsin B (Bos taurus, UniProt P07688).
T2 construct: purchased Sigma C-6286
Put plainly: Thiol protease inhibitory activity, cathepsin B (C-6286, Sigma). To be noted: Table 3. As to the method: as §1

Another experiment has as its target T3, cathepsin L (Rattus norvegicus, UniProt P07154).
T3 construct: Cathepsin L was purified from rat kidney; from tissue; host or cells: rat kidney
Put plainly: Thiol protease inhibitory activity, cathepsin L purified from rat kidney. To be noted: Table 3. As to the method:
as §1

The target in another experiment is T4, m-calpain (Rattus norvegicus, UniProt Q07009).
T4 construct: m-calpain was purified from rat brain; from tissue; host or cells: rat brain
T4 sequence (Q07009 20-700 limits assumed): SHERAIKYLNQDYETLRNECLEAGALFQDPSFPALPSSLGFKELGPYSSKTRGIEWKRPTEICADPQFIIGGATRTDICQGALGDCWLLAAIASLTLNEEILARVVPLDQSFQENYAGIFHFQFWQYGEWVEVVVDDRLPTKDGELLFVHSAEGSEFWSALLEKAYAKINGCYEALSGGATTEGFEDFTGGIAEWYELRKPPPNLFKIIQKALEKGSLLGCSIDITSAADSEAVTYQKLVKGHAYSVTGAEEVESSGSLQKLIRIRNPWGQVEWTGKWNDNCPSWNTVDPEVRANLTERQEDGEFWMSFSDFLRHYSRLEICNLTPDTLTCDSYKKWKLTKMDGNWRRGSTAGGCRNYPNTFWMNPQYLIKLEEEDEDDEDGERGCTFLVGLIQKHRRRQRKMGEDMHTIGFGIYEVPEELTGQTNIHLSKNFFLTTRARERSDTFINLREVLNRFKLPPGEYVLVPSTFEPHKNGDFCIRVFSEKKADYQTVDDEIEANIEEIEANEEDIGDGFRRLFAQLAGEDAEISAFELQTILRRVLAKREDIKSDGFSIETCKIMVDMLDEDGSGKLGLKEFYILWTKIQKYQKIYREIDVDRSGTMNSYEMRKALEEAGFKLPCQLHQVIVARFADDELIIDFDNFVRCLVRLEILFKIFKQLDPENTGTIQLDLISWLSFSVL
T4 sequence (Q64537 1-270 partner): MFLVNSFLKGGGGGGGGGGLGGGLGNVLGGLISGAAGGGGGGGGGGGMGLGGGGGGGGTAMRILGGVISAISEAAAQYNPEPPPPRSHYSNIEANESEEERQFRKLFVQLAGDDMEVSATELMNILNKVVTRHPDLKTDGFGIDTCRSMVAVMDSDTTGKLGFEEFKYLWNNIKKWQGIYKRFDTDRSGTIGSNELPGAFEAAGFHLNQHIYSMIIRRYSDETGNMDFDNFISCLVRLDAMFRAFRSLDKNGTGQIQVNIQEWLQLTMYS
Put plainly: Thiol protease inhibitory activity, m-calpain purified from rat brain. To be noted: Table 3. The method, boiled down:
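Papain and bovine cathepsin B assayed by a published method; cathepsin L purified from rat kidney and assayed in the same manner as cathepsin B. m-Calpain purified from rat brain and assayed by a separate published procedure.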

T3 sequence (P07154 114-334): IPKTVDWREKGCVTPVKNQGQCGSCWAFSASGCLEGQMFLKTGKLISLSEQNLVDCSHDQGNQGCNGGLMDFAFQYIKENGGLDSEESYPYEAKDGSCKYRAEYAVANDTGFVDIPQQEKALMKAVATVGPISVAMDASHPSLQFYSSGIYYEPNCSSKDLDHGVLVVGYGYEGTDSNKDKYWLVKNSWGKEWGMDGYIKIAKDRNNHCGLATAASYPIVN

By IC50 is commonly meant the midpoint of a concentration-inhibition curve. Take `CCCC[C@H](NC(=O)[C@H](CC(C)C)NC(=O)CSc1ccccc1)C(=O)CSCc1ccco1` [49 (No. 107), (s)-1-furfurylthio-3-((s)-4-methyl-2-phenylthioacetylaminovalerylamino)-2-heptanone]: the half-inhibitory concentration (IC50) against papain came to 0.04 µM; on cathepsin B, 0.59 µM; at cathepsin L, 0.67 µM; on m-calpain it was 11 µM.
With `CCCC[C@H](NC(=O)[C@H](CC(C)C)NC(=O)COc1ccc2ccccc2c1)C(=O)CSCc1ccco1` [53 (No. 115), (s)-1-furfurylthio-3-[(s)-4-methyl-2-(2-naphtoxyacetylamino)valerylamino]-2-heptanone], the 50% inhibitory concentration (IC50) at papain (Table 3, read-out: IC50 papain) came out at 9.2 µM; at cathepsin B it was 11 µM; at cathepsin L, 1.5 µM; at m-calpain it was 6.2 µM.
For `CCCC[C@H](NC(=O)[C@H](CC(C)C)NC(=O)c1ccccc1)C(=O)CSCc1ccco1` [54 (No. 116), (s)-3-((s)-2-benzoylamino-4-methylvalerylamino)-1-furfurylthio-2-heptanone], in that order: 0.38 µM, 0.88 µM, 0.25 µM and 14 µM.
Turning to `CCCC[C@H](NC(=O)[C@H](CC(C)C)NC(=O)c1ccc2ccccc2c1)C(=O)CSCc1ccco1` [82 (No. 162), (s)-1-furfurylthio-3-[(s)-4-methyl-2-(2-naphtoylamino)valerylamino]-2-heptanone], the IC50 at papain (Table 3, read-out: IC50 papain) worked out at 34 µM; against cathepsin B it was 2.7 µM; on cathepsin L, 0.32 µM; against m-calpain, 20 µM.
For `CCCC[C@H](NC(=O)[C@H](CC(C)C)NC(=O)c1cccc2ccccc12)C(=O)CSCc1ccco1` [83 (No. 161), (s)-1-furfurylthio-3-[(s)-4-methyl-2-(1-naphtoylamino)valerylamino]-2-heptanone], in that order: 47 µM, 5 µM, 0.4 µM and 12 µM.
The matching figures for `CCCC[C@H](NC(=O)[C@H](CC(C)C)NC(=O)c1cc2ccccc2o1)C(=O)CSCc1ccco1` [91 (No. 180), (s)-3-[(s)-2-(2-benzofuranylcarbonylamino)-4-methylvalerylamino]-1-furfurylthio-2-heptanone]: 0.16 µM, 0.05 µM, 0.069 µM and 14 µM.
For `CC(C)C[C@H](NC(=O)OCc1ccccc1)C(=O)N[C@@H](CC1CCCCC1)C(=O)CSCc1ccco1` [109 (No. 238), (s)-3-((s)-2-benzyloxycarbonylamino-4-methylvalerylamino)-4-cyclohexyl-1-furfurylthio-2-butanone], the 50% inhibitory concentration (IC50) on papain (Table 3, read-out: IC50 papain) is 4.2 µM; on cathepsin B, 1.1 µM; on cathepsin L, 1.2 µM; on m-calpain, 13 µM.
As for `CC(C)C[C@H](NC(=O)COc1ccccc1)C(=O)N[C@@H](CC1CCCCC1)C(=O)CSCc1ccco1` [110 (No. 240), (s)-4-cyclohexyl-1-furfurylthio-3-((s)-4-methyl-2-phenoxyacetylaminovalerylamino)-2-butanone], the IC50 on papain came out at 21 µM; against cathepsin B, 3.3 µM; at cathepsin L, 0.98 µM; against m-calpain, 6 µM.
On to `CSCC(=O)[C@H](Cc1ccccc1)NC(=O)[C@H](CC(C)C)NC(=O)Cc1cccc2ccccc12` [120 (No. 256), (s)-3-[(s)-4-methyl-2-(1-naphtylacetylamino)valerylamino]-1-methylthio-4-phenyl-2-butanone], for which the IC50 at papain (Table 3, read-out: IC50 papain) amounted to 56 µM; against cathepsin B, 3.9 µM; against cathepsin L, 0.49 µM; at m-calpain it was 26 µM.
As to `CCC(C)[C@H](NC(=O)OCC1CCCCC1)C(=O)N[C@@H](Cc1ccccc1)C(=O)CSCc1ccco1` (some centres unmarked) [135 (No. 288), (s)-3-((s)-2-cyclohexylmethoxycarbonylamino-3-methylvalerylamino)-1-furfurylthio-4-phenyl-2-butanone], the IC50 at papain (Table 3, read-out: IC50 papain) was determined as 59 µM; at cathepsin B, 0.31 µM; on cathepsin L it was 0.054 µM; against m-calpain, 3.2 µM.
Regarding `CC(C)C[C@H](NC(=O)OCc1ccccn1)C(=O)N[C@@H](Cc1ccccc1)C(=O)CSCc1ccco1` [150 (No. 313), (s)-1-furfurylthio-3-[(s)-4-methyl-2-(2-pyridylmethoxycarbonylamino)valerylamino]-4-phenyl-2-butanone], the half-maximal inhibitory concentration (IC50) on papain (Table 3, read-out: IC50 papain) came to 91 µM; at cathepsin B it was 1.1 µM; against cathepsin L, 0.27 µM; against m-calpain, 5.4 µM.
For `CC(C)C[C@H](NC(=O)Cc1cccc2ccccc12)C(=O)N[C@@H](Cc1ccccc1)C(=O)CSCc1ccco1` [159 (No. 333), (s)-1-furfurylthio-3-[(s)-4-methyl-2-(l-naphtylacetylamino)valerylamino]-4-phenyl-2-butanone], in that order: 0.38 µM, 0.75 µM, 1.1 µM and 1.9 µM.
`CC(C)C[C@H](NC(=O)Cc1ccc2ccccc2c1)C(=O)N[C@@H](Cc1ccccc1)C(=O)CSCc1ccco1` [160 (No. 334), (s)-1-furfurylthio-3-[(s)-4-methyl-2-(2-naphtylacetylamino)valerylamino]-4-phenyl-2-butanone]: the IC50 on papain (Table 3, read-out: IC50 papain) amounted to 35 µM; on cathepsin B, 3.3 µM; at cathepsin L it was 6.6 µM; at m-calpain it was 28 µM.
In the case of `CC(C)C[C@H](NC(=O)COc1ccccc1)C(=O)N[C@@H](Cc1ccccc1)C(=O)CSCc1ccco1` [164 (No. 348), (s)-1-furfurylthio-3-((s)-4-methyl-2-phenoxyacetylaminovalerylamino)-4-phenyl-2-butanone], the half-maximal inhibitory concentration (IC50) on papain was 35 µM; at cathepsin B it was 64 µM; against cathepsin L, 3.2 µM; against m-calpain, 1.7 µM.
Take `CC(C)C[C@H](NC(=O)C(C)Oc1ccccc1)C(=O)N[C@@H](Cc1ccccc1)C(=O)CSCc1ccco1` (some centres unmarked) [165 (No. 349), (s)-1-furfurylthio-3-[(s)-4-methyl-2-(2-phenoxypropionylamino)valerylamino]-4-phenyl-2-butanone]: the IC50 worked out at 9.2 µM at papain (Table 3, read-out: IC50 papain); 7 µM against cathepsin B; 1.9 µM against cathepsin L; 13 µM at m-calpain.
`CC(C)C[C@H](NC(=O)COc1ccccc1Cl)C(=O)N[C@@H](Cc1ccccc1)C(=O)CSCc1ccco1` [167 (No. 354), (s)-3-[(s)-2-(2-chlorophenoxyacetylamino)-4-methylvalerylamino]-1-furfurylthio-4-phenyl-2-butanone]: the half-maximal inhibitory concentration (IC50) at papain (Table 3, read-out: IC50 papain) is above 100 µM; against cathepsin B it was 30 µM; on cathepsin L, 1.4 µM; against m-calpain, 20 µM.
On to `CC(C)C[C@H](NC(=O)COc1cccc2ccccc12)C(=O)N[C@@H](Cc1ccccc1)C(=O)CSCc1ccco1` [170 (No. 364), (s)-1-furfurylthio-3-[(s)-4-methyl-2-(1-naphtoxyacetylamino)valerylamino]-4-phenyl-2-butanone], for which the IC50 at papain (Table 3, read-out: IC50 papain) came to 9.2 µM; against cathepsin B, 6.5 µM; on cathepsin L, 8.6 µM; against m-calpain it was 19 µM.
